Series [1] has as its target T1, Replicase polyprotein 1ab (Severe acute respiratory syndrome coronavirus 2, UniProt P0DTD1). The series is described as follows: Inhibition of SARS CoV-2 main protease.
Series [2] in a line: Cytotoxicity against African green monkey Vero cells incubated for 3 days by automatic cell counting method. As to conditions: chlorocebus sabaeus, time 3 day. The format is toxicity, cell-based.
In the next series the test system is SARS-CoV-2. The series is described as follows: Antiviral activity against SARS-CoV-2 infected in African green monkey Vero cells assessed as inhibition of viral replication measured after 24 hrs post infection by qRT-PCR analysis. Format: functional, organism-based. As to conditions: Severe acute respiratory syndrome coronavirus 2, Vero. On the technique in general: Quantitative PCR measures a nucleic acid by following its amplification.

The target of series [3] is T1, Replicase polyprotein 1ab. The series is described as follows: Binding affinity to SARS CoV-2 main protease assessed as inhibition constant.

pEC50, pIC50, pKi: −log10 of the molar value.

Results on two compounds are retold here after ChEMBL document CHEMBL5346909, “Korupensamine A, but not its atropisomer, korupensamine B, inhibits SARS-CoV-2 in vitro by targeting its main protease (Mpro)” (Eur J Med Chem, 2023).

As to `COc1cc(C)cc2c(-c3c(O)cc(O)c4c3C[C@@H](C)N[C@@H]4C)ccc(O)c12` (stereo in doubt; 1a) [KORUPENSAMINE A], the negative-log IC50 (pIC50) (commonly the negative decadic logarithm of the IC50, by convention in mol/L) in series [1] was 5.60. Further, half-maximal cytotoxicity in series [2] (CC50 at 72 h) was put at 35.1 µM. In the series on SARS-CoV-2, the negative logarithm of the EC50 (pEC50) (as a rule, the negative decadic logarithm of the EC50, by convention in mol/L) is 5.37. Besides, the pKi (commonly −log10 of the Ki, conventionally taken in molar units) in series [3] was 5.85.

`COc1cc(C)cc2c(-c3c(O)cc(O)c4c3C[C@@H](C)N[C@@H]4C)ccc(O)c12` (stereo in doubt; 1b) [KORUPENSAMINE A] gave a pIC50 in series [1] of 4.14.
